Data published in US5235061A, “Fungicidal (1H-1,2,4-triazolyl)disilaalkanes” (priority 1991, dated 1993).

How the values were obtained:
Experiment in all cases: In vitro percent disease control (radii of spore growth on agar)
Assay type in all cases: cell-based
Physalospora baccae = settings: read-out: % controlled, Phy ba.
Method in brief: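 Compounds at 100 and 50 ppm (10% acetone) mixed into potato-sucrose-agar, fungus spotted centrally and grown several days in a growth room. Percent disease control derived from radii of spore growth.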

Phytophthora capsisi = settings: Phytophthora, read-out: % controlled, Phy ca.
Method in brief: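 Compounds dissolved in acetone (10% of final volume) then water at 100 ppm and 50 ppm, mixed into potato-sucrose-agar; fungus spotted at plate centre and incubated several days. Percent disease control derived from radii of spore growth.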

Pyricalaria oryzae = settings: for inhibition of growth at 50 ppm: read-out: % controlled, Py. or., 50 ppm; for inhibition of growth at 100 ppm: read-out: % controlled, Py. or., 100 ppm
Method in brief: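 Compounds at 100 ppm and 50 ppm (10% acetone in water) mixed into potato-sucrose-agar, P. oryzae spotted centrally and incubated several days. Percent disease control derived from radii of spore growth.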

Rhizopus sp. = settings: Rhizopus, read-out: % controlled, Rhi. sp.
Method in brief: (§1)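 Compounds in acetone (10% of final volume) diluted with water to 100 and 50 ppm, then mixed into potato-sucrose-agar with each fungus spotted centrally. Incubated several days in a growth room; percent disease control derived from radii of spore growth.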

Alternaria mali = settings: Alternaria mali, read-out: % controlled, Al.
Method in brief: as §1

Fusarium moniliforme = tested on: Fusarium moniliforme
Method in brief: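 Compounds in 10% acetone/water at 100 and 50 ppm were mixed into potato-sucrose-agar, with Fusarium moniliforme spotted centrally. After several days' incubation, percent disease control was derived from radii of spore growth.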

Glomerella cingulata = settings: Colletotrichum gloeosporioides, read-out: % controlled, Glo.
Method in brief: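 Compounds were dissolved in acetone (10% of final volume) plus water at 100 ppm and 50 ppm and mixed into potato-sucrose agar. G. cingulata was spotted centrally and incubated for several days in a growth room. Percent disease control was derived from the radii of spore growth.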

Rhizoctonia solani = settings: Rhizoctonia solani, read-out: % controlled, Rhy. so.
Method in brief: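 Test compounds at 100 ppm and 50 ppm (acetone 10% of final volume, then water) were mixed into potato-sucrose-agar, and the fungus was spotted at the dish centre. Dishes were incubated several days in a growth room. Percent disease control was derived from the radii of spore growth.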

[1] = tested on: Botryosphaeria dothidea Macrophoma sp.; settings: Botryosphaeria dothidea, read-out: % controlled, Bo.do (Ma.)
Method in brief: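 Compounds (100 and 50 ppm, 10% acetone in water) were mixed into potato-sucrose-agar and the fungus was spotted centrally, then incubated several days in a growth room. Percent disease control came from radii of spore growth.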

Botry tris cinerea = settings: read-out: % controlled, Bo ci.
Method in brief: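 Compounds at 100 and 50 ppm (acetone 10% of final volume, rest water) mixed into potato-sucrose agar; Botrytis cinerea spotted at dish centre. After several days' incubation, percent disease control calculated from radii of spore growth.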

Which inhibition of growth at 50 ppm (Physalospora baccae) does the source give for C=CC[Si](C)(Cn1cncn1)C[Si](CC=C)(c1ccc(F)cc1)c1ccc(F)cc1 (stereo not shown) [6,6-bis(4-fluorophenyl)-4-methyl-4,6-disila-4-(1H-1,2,4-triazol-1-ylmethyl)-1,8-nonadiene] here?
The inhibition of growth at 50 ppm was 60%.

What about the inhibition of growth at 100 ppm (Physalospora baccae) of the same compound?
Its inhibition of growth at 100 ppm is 80%.

What about the inhibition of growth at 50 ppm (Phytophthora capsisi) of the same compound?
The inhibition of growth at 50 ppm was 21%.

What about the inhibition of growth at 100 ppm (Phytophthora capsisi) of the same compound?
The inhibition of growth at 100 ppm was 100%.

And the inhibition of growth at 50 ppm (Pyricalaria oryzae)?
Its inhibition of growth at 50 ppm is 85%.

And the inhibition of growth at 100 ppm (Pyricalaria oryzae)?
Its inhibition of growth at 100 ppm is 100%.

What about the inhibition of growth at 50 ppm (Rhizopus sp.) of the same compound?
Its inhibition of growth at 50 ppm is 100%.

What about the inhibition of growth at 100 ppm (Rhizopus sp.) of the same compound?
The inhibition of growth at 100 ppm was 100%.

What about the inhibition of growth at 50 ppm (Alternaria mali) of the same compound?
The inhibition of growth at 50 ppm was 78%.

And the inhibition of growth at 100 ppm (Alternaria mali)?
The inhibition of growth at 100 ppm was 100%.

And the “% controlled, Fu. mo.” value (Fusarium moniliforme; 50 ppm)?
The value was 100%.

And the “% controlled, Fu. mo.” value (Fusarium moniliforme; 100 ppm)?
Its value is 100%.

What about the inhibition of growth at 50 ppm (Glomerella cingulata) of the same compound?
Its inhibition of growth at 50 ppm is 100%.

What about the inhibition of growth at 100 ppm (Glomerella cingulata) of the same compound?
Its inhibition of growth at 100 ppm is 100%.

What about the inhibition of growth at 50 ppm (Rhizoctonia solani) of the same compound?
Its inhibition of growth at 50 ppm is 75%.

What about the inhibition of growth at 100 ppm (Rhizoctonia solani) of the same compound?
The inhibition of growth at 100 ppm was 87%.

What about the inhibition of growth at 50 ppm [1] of the same compound?
The inhibition of growth at 50 ppm was 100%.

What about the inhibition of growth at 100 ppm [1] of the same compound?
The inhibition of growth at 100 ppm was 100%.

What about the inhibition of growth at 50 ppm (Botry tris cinerea) of the same compound?
The inhibition of growth at 50 ppm was 86%.

What about the inhibition of growth at 100 ppm (Botry tris cinerea) of the same compound?
Its inhibition of growth at 100 ppm is 100%.

For C[Si](C)(C[Si](C)(Cn1cncn1)c1ccc(Cl)cc1)c1ccc(Cl)cc1 (stereo not shown) [2,4-bis(4-chlorophenyl)-2,4-dimethyl-2,4-disila-1-(1H-1,2,4-triazol-1-yl)pentane], which inhibition of growth at 50 ppm (Physalospora baccae) is on record?
The inhibition of growth at 50 ppm was 34%.

What about the inhibition of growth at 100 ppm (Physalospora baccae) of the same compound?
Its inhibition of growth at 100 ppm is 37%.

What about the inhibition of growth at 50 ppm (Phytophthora capsisi) of the same compound?
The inhibition of growth at 50 ppm was 16%.

And the inhibition of growth at 100 ppm (Phytophthora capsisi)?
The inhibition of growth at 100 ppm was 22%.

What about the inhibition of growth at 50 ppm (Pyricalaria oryzae) of the same compound?
Its inhibition of growth at 50 ppm is 27%.

And the inhibition of growth at 100 ppm (Pyricalaria oryzae)?
Its inhibition of growth at 100 ppm is 27%.

What about the inhibition of growth at 50 ppm (Rhizopus sp.) of the same compound?
Its inhibition of growth at 50 ppm is 31%.

And the inhibition of growth at 100 ppm (Rhizopus sp.)?
Its inhibition of growth at 100 ppm is 40%.

And the inhibition of growth at 50 ppm (Alternaria mali)?
Its inhibition of growth at 50 ppm is 54%.

And the inhibition of growth at 100 ppm (Alternaria mali)?
The inhibition of growth at 100 ppm was 69%.

And the “% controlled, Fu. mo.” value (Fusarium moniliforme; 50 ppm)?
Its value is 48%.

And the “% controlled, Fu. mo.” value (Fusarium moniliforme; 100 ppm)?
The value was 57%.

And the inhibition of growth at 50 ppm (Glomerella cingulata)?
The inhibition of growth at 50 ppm was 70%.

And the inhibition of growth at 100 ppm (Glomerella cingulata)?
The inhibition of growth at 100 ppm was 76%.

And the inhibition of growth at 50 ppm (Rhizoctonia solani)?
Its inhibition of growth at 50 ppm is 28%.

And the inhibition of growth at 100 ppm (Rhizoctonia solani)?
Its inhibition of growth at 100 ppm is 42%.

What about the inhibition of growth at 50 ppm [1] of the same compound?
The inhibition of growth at 50 ppm was 80%.

And the inhibition of growth at 100 ppm [1]?
Its inhibition of growth at 100 ppm is 82%.

What about the inhibition of growth at 50 ppm (Botry tris cinerea) of the same compound?
The inhibition of growth at 50 ppm was 33%.

What about the inhibition of growth at 100 ppm (Botry tris cinerea) of the same compound?
The inhibition of growth at 100 ppm was 41%.
